Our source for the IC50 values is patent US9260416B2, “Heterocyclic autotaxin inhibitors and uses thereof” (AMIRA PHARMACEUTICALS, INC., priority 2011, dated 2016).

Each structure is given as a SMILES string.

In this experiment the target is T1, autotaxin (Homo sapiens, UniProt Q13822).
T1 construct: tissue Biocell Laboratories Inc 1121-00; host or cells: human serum (delipidated, dialyzed)
Put plainly: Human Serum Autotaxin Assay (choline release from LPC, TOOS detection). It counts as biochemical. The settings on record: dialyzed human serum; substrate LPC 14:0, 300 μM; 4 hours at 37° C.; choline release read at 555 nm. Here is the method:
Human Serum Autotaxin Assay
Inhibition of autotaxin activity is assayed in human serum by measuring the amount of choline released from the substrate, lysophosphatidylcholine (LPC). […] To assay for autotaxin inhibition, 20 μl of the dialyzed human serum is incubated with 2 μl test compound in DMSO and 73 μl lyso-PLD buffer (100 mM Tris pH 9, 500 mM NaCl, 5 mM MgCl2, 30 μM CoCl2, 0.05% Triton X-100) for 15 minutes at 37° C. […] 100 μl of a color mix which contains 4.5 mM 4-aminoantipyrine, 2.7 mM N-ethyl-N-(2-hydroxy-3-sulfopropyl)-m-toluidine, 21 units/ml Horseradish peroxidase and 3 units/ml choline oxidase in 50 mM Tris, pH 8, 4.5 mM MgCl2 is added and the incubation continued for 15 minutes at room temperature before reading the absorbance at 555 nm. The concentration of released choline in the sample is determined from a choline standard curve and is equal to the concentration of LPA produced.
As for `Cc1[nH]c2cc(Cl)ccc2c1Sc1cncc(C(=O)O)c1` [Compound 1-1, 5-(6-Chloro-2-methyl-1H-indol-3-ylsulfanyl)-nicotinic acid], the IC50 (usually the concentration that inhibits the measured activity by half) was over 1 µM. For the compound `Cc1c(Sc2cncc(C(=O)O)c2)c2ccc(Cl)cc2n1Cc1ccccc1` [Compound 1-2, 5-(1-Benzyl-6-chloro-2-methyl-1H-indol-3-ylsulfanyl)-nicotinic acid], the IC50 is over 1 µM. The compound `Cc1c(Sc2cncc(C(=O)O)c2)c2ccc(Cl)cc2n1-c1cnn(C)c1` [Compound 1-3, 5-[6-Chloro-2-methyl-1-(1-methyl-1H-pyrazol-4-yl)-1H-indol-3-ylsulfanyl]-nicotinic acid] returned an IC50 of under 0.3 µM. In the case of `CCn1cc(-n2c(C)c(Sc3cncc(C(=O)O)c3)c3ccc(Cl)cc32)cn1` [Compound 1-4, 5-[6-Chloro-1-(1-ethyl-1H-pyrazol-4-yl)-2-methyl-1H-indol-3-ylsulfanyl]-nicotinic acid], the concentration for half-maximal inhibition (IC50) was under 0.3 µM. In turn, `Cc1c(Sc2cncc(C(=O)O)c2)c2ccc(Cl)cc2n1-c1cnn(C(C)C)c1` [Compound 1-5, 5-[6-Chloro-1-(1-isopropyl-1H-pyrazol-4-yl)-2-methyl-1H-indol-3-ylsulfanyl]-nicotinic acid] returned a half-inhibitory concentration (IC50) of under 0.3 µM. As for `Cc1c(Sc2cc(C(=O)O)ccn2)c2ccc(Cl)cc2n1-c1cnn(C)c1` [Compound 1-6, 2-[6-Chloro-2-methyl-1-(1-methyl-1H-pyrazol-4-yl)-1H-indol-3-ylsulfanyl]-isonicotinic acid], the IC50 is over 1 µM. The same measure for `CCn1cc(-n2c(C)c(Sc3cc(C(=O)O)ccn3)c3ccc(Cl)cc32)cn1` [Compound 1-7, 2-[6-Chloro-1-(1-ethyl-1H-pyrazol-4-yl)-2-methyl-1H-indol-3-ylsulfanyl]-isonicotinic acid]: under 0.3 µM; for `Cc1c(Sc2cc(C(=O)O)ccn2)c2ccc(Cl)cc2n1-c1cnn(C(C)C)c1` [Compound 1-8, 2-[6-Chloro-1-(1-isopropyl-1H-pyrazol-4-yl)-2-methyl-1H-indol-3-ylsulfanyl]-isonicotinic acid]: 0.3 to 1 µM; for `CCn1cc(-n2c(C)c(Sc3cccc(C(=O)O)n3)c3ccc(Cl)cc32)cn1` [Compound 1-9, 6-[6-Chloro-1-(1-ethyl-1H-pyrazol-4-yl)-2-methyl-1H-indol-3-ylsulfanyl]-pyridine-2-carboxylic acid]: under 0.3 µM. Compound `Cc1c(Sc2cccc(C(=O)O)n2)c2ccc(Cl)cc2n1-c1cnn(C)c1` [Compound 1-10, 6-[6-Chloro-2-methyl-1-(1-methyl-1H-pyrazol-4-yl)-1H-indol-3-ylsulfanyl]-pyridine-2-carboxylic acid] registered an IC50 of under 0.3 µM. On to `CCCn1cc(-n2c(C)c(Sc3cccc(C(=O)O)n3)c3ccc(Cl)cc32)cn1` [Compound 1-11, 6-[6-Chloro-2-methyl-1-(1-propyl-1H-pyrazol-4-yl)-1H-indol-3-ylsulfanyl]-pyridine-2-carboxylic acid], for which the half-inhibitory concentration (IC50) was under 0.3 µM. In turn, `CCn1cc(-n2c(C)c(Sc3cccc(C(=O)O)n3)c3ccc(Cl)c(F)c32)cn1` [Compound 1-12, 6-[6-Chloro-1-(1-ethyl-1H-pyrazol-4-yl)-7-fluoro-2-methyl-1H-indol-3-ylsulfanyl]-pyridine-2-carboxylic acid] gave an IC50 of under 0.3 µM. The value for `Cc1c(Sc2cccc(C(=O)O)n2)c2ccc(Cl)c(F)c2n1-c1cnn(C(C)C)c1` [Compound 1-13, 6-[6-Chloro-7-fluoro-1-(1-isopropyl-1H-pyrazol-4-yl)-2-methyl-1H-indol-3-ylsulfanyl]-pyridine-2-carboxylic acid] was under 0.3 µM; that for `Cc1c(Sc2cccc(C(=O)O)n2)c2ccc(Cl)cc2n1-c1cnn(C(C)C)c1` [Compound 1-14, 6-[6-Chloro-1-(1-isopropyl-1H-pyrazol-4-yl)-2-methyl-1H-indol-3-ylsulfanyl]-pyridine-2-carboxylic acid] was under 0.3 µM.

For `CCCn1cc(-n2c(C)c(Sc3cccc(C(=O)O)n3)c3ccc(Cl)c(F)c32)cn1` [Compound 1-15, 6-[6-Chloro-7-fluoro-2-methyl-1-(1-propyl-1H-pyrazol-4-yl)-1H-indol-3-ylsulfanyl]-pyridine-2-carboxylic acid], the IC50 was under 0.3 µM. Compound `CCn1cc(-n2c(C)c(Sc3cnn(CC(=O)O)c3)c3ccc(Cl)c(F)c32)cn1` [Compound 1-16, {4-[6-Chloro-1-(1-ethyl-1H-pyrazol-4-yl)-7-fluoro-2-methyl-1H-indol-3-ylsulfanyl]-pyrazol-1-yl}-acetic acid] came in with an IC50 of under 0.3 µM. Compound `CCn1cc(-n2c(C)c(Sc3cccc(CC(=O)O)n3)c3ccc(Cl)c(F)c32)cn1` [Compound 1-17, {6-[6-Chloro-1-(1-ethyl-1H-pyrazol-4-yl)-7-fluoro-2-methyl-1H-indol-3-ylsulfanyl]-pyridin-2-yl}-acetic acid] registered a half-inhibitory concentration (IC50) of under 0.3 µM. For `CCCn1cc(-n2c(C)c(Sc3cccc(CC(=O)O)n3)c3ccc(Cl)c(F)c32)cn1` [Compound 1-18, {6-[6-Chloro-7-fluoro-2-methyl-1-(1-propyl-1H-pyrazol-4-yl)-1H-indol-3-ylsulfanyl]-pyridin-2-yl}-acetic acid], the IC50 was under 0.3 µM.
